A word on the IC50: it is the midpoint of a concentration-inhibition curve.

The experiment relates to NCI-H295R. In words: IC50 (antiproliferative, ATP content). The settings on record: 48 h. Summed up:
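Adrenocortical carcinoma cells (1500 per well) were seeded in serum-free ITS-supplemented DMEM in 1536-well plates and cultured overnight. Library compounds were then pin-transferred at 8 final concentrations from 0.6 nM to 46 µM, and plates were kept 48 h at 37 °C, 5% CO2. ATP was read as CellTiter-Glo luminescence after 20 min at room temperature and normalised to vehicle (0%) and positive control (100% inhibition). IC50 came from four-parameter logistic fits; compounds with no concentration response were recorded as above the top dose.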
In turn, `CCCCOC(=O)CC(CC(=O)OCCCC)(OC(C)=O)C(=O)OCCCC` yielded an IC50 greater than 46 µM. Next, `Cc1cc(C(=O)NCCc2ccc(S(=O)(=O)NC(=O)NN3CCCCCC3)cc2)no1`: greater than 46 µM; `O=C(C1=C2CCCC1)N(COC([C@H]3C([C@@H]3/C=C(C)\C)(C)C)=O)C2=O`: greater than 46 µM; `CC[C@H]1OC(=O)C[C@@H](O)[C@H](C)[C@@H](O[C@@H]2O[C@H](C)[C@@H](O[C@H]3C[C@@](C)(O)[C@@H](O)[C@H](C)O3)[C@H](N(C)C)[C@H]2O)[C@@H](CC=O)C[C@@H](C)C(=O)/C=C/C(C)=C/[C@@H]1CO[C@@H]1O[C@H](C)[C@@H](O)[C@@H](OC)[C@H]1OC.O=C(O)[C@H](O)[C@@H](O)C(=O)O`: greater than 46 µM.

In turn, `NCCC[C@H](N)CC(=O)N[C@H]1CNC(=O)[C@H]([C@H]2C[C@H](O)N=C(N)N2)NC(=O)/C(=C/NC(N)=O)NC(=O)[C@H](CO)NC(=O)[C@H](CO)NC1=O.O=S(=O)(O)O` showed an IC50 greater than 46 µM.

With `Cl.O=C(O)CC/C=C\CC[C@@H]1[C@@H](N2CCCCC2)[C@@H](O)C[C@@H]1OCc1ccc(-c2ccccc2)cc1`, the IC50 was greater than 46 µM.

Regarding `CCCCCCCCCCCCCCC[C@H](O)[C@H](N)CO`, the IC50 is greater than 46 µM. In turn, `CN(C)C/C=C(/c1ccc(Br)cc1)c1cccnc1.Cl.Cl.O` registered an IC50 greater than 46 µM. Next, `CO[C@H]1C[C@@H]2CC[C@@H](C)[C@@](O)(O2)C(=O)C(=O)N2CCCC[C@H]2C(=O)O[C@H]([C@H](C)C[C@@H]2CC[C@@H](OC(=O)C(C)(CO)CO)[C@H](OC)C2)CC(=O)[C@H](C)/C=C(\C)[C@@H](O)[C@@H](OC)C(=O)[C@H](C)C[C@H](C)/C=C/C=C/C=C/1C`: greater than 46 µM; `CN(C)CC/C=C1\c2ccccc2COc2ccccc21.Cl`: greater than 46 µM; `C=C1[C@@H]2CC[C@@H](C2)C1(C)C`: greater than 46 µM. The result for `Cl.c1ccc(CC2=NCCN2)cc1` reads greater than 46 µM. Next, `CCCC1C(=O)N2C(N(C)C)=Nc3ccc(C)cc3N2C1=O` (configuration not stated): greater than 46 µM.

As to `C[N+](C)(C)CC(=O)O.[Cl-]`, the IC50 was greater than 46 µM.

`O=C(O[C@H]1C[C@H]2CC3C[C@@H](C1)N2CC3=O)c1c[nH]c2ccccc12` displayed an IC50 greater than 46 µM. Take `O=C(O)Cc1csc(-c2ccc(Cl)cc2)n1`: the IC50 is greater than 46 µM. Next, `CCOC(=O)c1ccc(O)cc1`: greater than 46 µM. Next, `CCN(CC)CCNC(=O)c1ccc(NC(C)=O)cc1.Cl`: greater than 46 µM; `C1CCc2nnnn2CC1`: greater than 46 µM; `CCn1cc(C(=O)O)c(=O)c2ccc(C)nc21`: greater than 46 µM. Next, `Cc1cnc(C(=O)NCCc2ccc(S(=O)(=O)NC(=O)NC3CCCCC3)cc2)cn1`: greater than 46 µM.

With `CN1C(=O)OC(C)(C)C1=O`, the IC50 was greater than 46 µM.

`O=C(OCc1ccccc1)c1ccccc1`: the IC50 is greater than 46 µM.

`CC(=O)Nc1nnc(S(N)(=O)=O)s1` displayed an IC50 greater than 46 µM.

As for `Cc1ccc(C(=O)Nc2ccc(S(=O)(=O)O)c3cc(S(=O)(=O)O)cc(S(=O)(=O)O)c23)cc1NC(=O)c1cccc(NC(=O)Nc2cccc(C(=O)Nc3cc(C(=O)Nc4ccc(S(=O)(=O)O)c5cc(S(=O)(=O)O)cc(S(=O)(=O)O)c45)ccc3C)c2)c1`, the IC50 was greater than 46 µM. In the case of `Cl.Cn1ccc2cc3c(cc21)CCN3C(=O)Nc1cccnc1`, the IC50 is greater than 46 µM. Next, `Cc1onc(-c2ccccc2)c1-c1ccc(S(N)(=O)=O)cc1`: greater than 46 µM.

In the case of `C/C(=C(\CCOC(=O)C(C)C)SS/C(CCOC(=O)C(C)C)=C(/C)N(C=O)Cc1cnc(C)nc1N)N(C=O)Cc1cnc(C)nc1N`, the IC50 is greater than 46 µM. Next, `O=C1Nc2ccc(Cl)cc2C(c2ccccc2)=NC1O` (configuration not stated): greater than 46 µM; `CC(=O)[C@H]1CC[C@H]2[C@@H]3CC[C@H]4C[C@H](O)CC[C@]4(C)[C@H]3C(=O)C[C@]12C`: greater than 46 µM. The compound `O=[C@@]([C@@H]2CC[C@@H](CN)CC2)OC1=CC=C(CCC(O)=O)C=C1.Cl` displayed an IC50 greater than 46 µM. Regarding `CN1C[C@H](C(=O)N[C@]2(C)O[C@@]3(O)[C@@H]4CCCN4C(=O)[C@H](Cc4ccccc4)N3C2=O)C[C@@H]2c3cccc4[nH]cc(c34)C[C@H]21`, the IC50 is greater than 46 µM. As for `FC(F)(F)C(Cl)Br` (configuration not stated), the half-maximal inhibitory concentration (IC50) was greater than 46 µM. The result for `Cl.Oc1cn2c(n1)Nc1ccc(Cl)c(Cl)c1C2` reads greater than 46 µM; that for `CCC1Nc2cc(Cl)c(S(N)(=O)=O)cc2S(=O)(=O)N1` (configuration not stated), greater than 46 µM. Next, `C=C[C@@]1(C)CC(=O)[C@]2(O)[C@@]3(C)[C@@H](O)CCC(C)(C)[C@@H]3[C@H](O)[C@H](OC(C)=O)[C@@]2(C)O1`: greater than 46 µM; `CC[C@H]1OC(=O)[C@H](C)[C@@H](O[C@H]2C[C@@](C)(OC)[C@@H](O)[C@H](C)O2)[C@H](C)[C@@H](O[C@@H]2O[C@H](C)C[C@H](N(C)C)[C@H]2O)[C@](C)(O)C[C@@H](C)CN(C)[C@H](C)[C@@H](O)[C@]1(C)O`: greater than 46 µM. Next, `OC[C@H]1O[C@@](CO)(O[C@H]2O[C@H](CO)[C@@H](O)[C@H](O)[C@H]2O)[C@@H](O)[C@@H]1O`: greater than 46 µM. Regarding `Br.CC(N)Cc1ccc(O)cc1` (configuration not stated), the IC50 was greater than 46 µM. In the case of `CC(C)C[C@@H](N)C(=O)O`, the IC50 is greater than 46 µM. Next, `O=C(O)c1nn(Cc2ccc(Cl)cc2Cl)c2ccccc12`: greater than 46 µM. Next, `CC(C)(C)C(=O)NCCCC(=O)O`: greater than 46 µM; `CN1CCC(=C2c3ccccc3CC(=O)c3sccc32)CC1`: greater than 46 µM; `O=C1[C@H]3[C@H](C3)[C@@]([C@]4([H])[C@@]([C@@]5([H])[C@]([C@@](CC5)(OC(C)=O)[C@@](C)=O)(C)CC4)([H])C=C2Cl)(C)C2=C1`: greater than 46 µM.

With `COc1ccc2cc(CCC(C)=O)ccc2c1`, the IC50 was greater than 46 µM.

`CC(C)C(=O)Nc1ccc([N+](=O)[O-])c(C(F)(F)F)c1` had an IC50 greater than 46 µM. The result for `O=C(CO)[C@@H](O)[C@H](O)[C@@H](O)C(=O)[O-].O=C(CO)[C@@H](O)[C@H](O)[C@@H](O)C(=O)[O-].[Ca+2]` reads greater than 46 µM.

`CC(=O)NCc1c(I)c(NC(C)=O)c(I)c(C(=O)O)c1I` came in with an IC50 greater than 46 µM. The result for `Nc1c2c(nc3ccccc13)CCCC2O.O=C(O)/C=C\C(=O)O` (configuration not stated) reads greater than 46 µM; that for `CCOC(=O)Nc1ccc2c(c1)N(C(=O)CCN1CCOCC1)c1ccccc1S2.Cl`, greater than 46 µM. The result for `CCNC(C)Cc1cccc(C(F)(F)F)c1` (configuration not stated) reads greater than 46 µM; that for `Cl.NC(CO)C(=O)NNCc1ccc(O)c(O)c1O` (configuration not stated), greater than 46 µM; that for `CS(=O)(=O)c1ccc(C2=C(c3ccccc3)C(=O)OC2)cc1`, greater than 46 µM. On to `Cl.O=C(NC1CCN(CCc2c[nH]c3ccccc23)CC1)c1ccccc1`, for which the IC50 was greater than 46 µM. The result for `CCn1cc(C(=O)O)c(=O)c2cc(F)c(N3CCNCC3)cc21` reads greater than 46 µM; that for `CCCCC/C=C\C/C=C\C/C=C\CCCCC(=O)O`, greater than 46 µM; that for `C[C@@H](O)[C@H]1C(=O)N2C(C(=O)O)=C(S[C@@H]3CN[C@H](C(=O)N(C)C)C3)[C@H](C)[C@H]12`, greater than 46 µM.

The record behind these values is the supplement of paper PMC3493320.
